From patent US20190112357A1, “PREVENTION OF PROTEIN DISULFIDE BOND REDUCTION” (MedImmune, LLC, priority 2016, published 2019) come the findings set out here.

The nature of data set [1]: Antibody reduction potential assay (Vacuum/GX). The format is physicochemical. The settings on record: EDTA 9.5, 19, 38 mM or Cystine 4 and 8 mM. The method, then:
Bioreactor samples (1 mL) were obtained daily and centrifuged at 3000-4000 RPM and the supernatant was frozen immediately at −80° C. On the day prior to the assay, the samples were removed from −80° C. storage, thawed, and placed in a vacuum chamber at room temperature overnight to induce reduction of the monoclonal antibody without the interference of oxygen. After the vacuum hold, the samples were analyzed for protein fragmentation under non-reducing conditions using a BioAnalyzer system (Agilent Technologies) or a LABCHIP® GXII system (PerkinElmer) to detect antibody fragments resulting from the breakage of the antibody's interchain disulfide bonds. […]
Samples were stored frozen until analyzed. […] After being denatured and the free thiols being capped by NEM, the samples were analyzed using a Perkin Elmer Labchip® GXII (Perkin Elmer, Waltham, Mass.) to perform size fractionation and quantification. Using the Labchip® GXII, the protein and fragments were detected by laser-induced fluorescence and translated into gel-like images (bands) and electropherograms (peaks).
Reduction potential, i.e. the potential of the molecule to be reduced under anaerobic condition, was measured by subjecting samples to vacuum analysis as described above followed addition of non-reducing sample buffer. […]

Data set [2] can be described thus: Antibody aggregation analysis (HP-SEC). The format is physicochemical. The note with it: EDTA 9.5, 19, 38 mM or Cystine 4 and 8 mM. As to the method: The percent of antibody aggregates was determined using standard size exclusion chromatography (HP-SEC) methods. An Agilent 1200 series system was used with a Tosoh Bioscience TSKgel G3000SW XL column (Tosoh Bioscience LLC, King of Prussia, Pa.) (7.8 mm×300 mm) at 1 mL/min flow rate using a mobile phase buffer of 0.1 M sodium phosphate, 0.1 M sodium sulfate, pH 6.8. The absorbance chromatography at 280 nm was used to quantify the results.

The target in data set [3] is T1, recombinant mammalian TrxR1/Trx1 (Rattus norvegicus, UniProt O89049).
T1 construct: purchased Cayman Chemical (TrxR1); Abcam (Trx1)
T1 sequence (O89049 1-499): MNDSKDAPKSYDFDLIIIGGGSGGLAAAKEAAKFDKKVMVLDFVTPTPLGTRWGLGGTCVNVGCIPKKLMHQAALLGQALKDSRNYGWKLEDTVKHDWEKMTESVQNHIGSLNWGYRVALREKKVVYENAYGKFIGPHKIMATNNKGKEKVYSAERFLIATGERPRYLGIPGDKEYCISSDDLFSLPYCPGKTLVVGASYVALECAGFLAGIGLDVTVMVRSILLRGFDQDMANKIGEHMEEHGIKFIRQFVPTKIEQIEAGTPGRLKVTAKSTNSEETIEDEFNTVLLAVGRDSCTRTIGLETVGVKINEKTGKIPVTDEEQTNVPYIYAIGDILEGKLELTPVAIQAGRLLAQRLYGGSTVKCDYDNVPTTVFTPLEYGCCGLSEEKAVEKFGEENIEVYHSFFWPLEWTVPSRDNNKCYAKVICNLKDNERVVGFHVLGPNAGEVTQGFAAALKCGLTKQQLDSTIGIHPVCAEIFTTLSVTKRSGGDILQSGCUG
In words: Reduction of purified mAb B by recombinant TrxR1/Trx1, capillary electrophoresis. The format is biochemical, human (Trx1). The method, then:
(§1) Antibody reduction in cell culture supernatant samples was measured by detecting the presence of reduced species via capillary electrophoresis using standard procedures on a 2100 Bioanalyzer system (Agilent Technologies, Santa Clara, Calif.). Samples were diluted 1-6 fold depending on titer and analyzed under non-reducing conditions following 2100 Bioanalyzer standard protocols. Supernatant samples from 3 L bioreactors were stored frozen until all samples had been acquired and were ready for analysis. Samples were thawed on ice and analyzed immediately to evaluate the amount of reduced antibody in the reactor on each day of the run.
The role of each enzymatic system in antibody reduction was evaluated by determining the conditions under which these reductase systems cause antibody reduction. Using purified recombinant mammalian reductases, the thioredoxin system was evaluated by spiking purified mAb B into five solutions containing: 1) no enzymes, 2) 1 μM TrxR1, 3) 0.1 μM TrxR1, 4) […], and 5) 0.1 μM TrxR1+2.5 μM Trx1. All samples contained 0.4 mM NADPH and were stored at room temperature overnight. Digital gel-like images were obtained from microchip-based capillary electrophoresis analysis.
(§2) To confirm that the activity from a particular reductase system can translate into reduced antibody, a second method was developed to determine the impact of each reductase system on antibody reduction. The principle of the reduction assay is similar to the reductase activity assay described above. The percent of protein reduction without an inhibitor was compared to the percent of protein reduction in the presence of specific inhibitors for GR or TrxR1. In this assay, purified mAb B was spiked into solutions containing recombinant mammalian TrxR1/Trx1 or recombinant mammalian GR/GSSG and stored in an oxygen-free environment overnight. The percent of reduced mAb B antibody was evaluated using capillary electrophoresis, as set forth above.

In data set [4] the target is T2, recombinant mammalian GR/GSSG (Homo sapiens, UniProt P00390).
T2 construct: purchased Abcam
T2 sequence (P00390 44-522): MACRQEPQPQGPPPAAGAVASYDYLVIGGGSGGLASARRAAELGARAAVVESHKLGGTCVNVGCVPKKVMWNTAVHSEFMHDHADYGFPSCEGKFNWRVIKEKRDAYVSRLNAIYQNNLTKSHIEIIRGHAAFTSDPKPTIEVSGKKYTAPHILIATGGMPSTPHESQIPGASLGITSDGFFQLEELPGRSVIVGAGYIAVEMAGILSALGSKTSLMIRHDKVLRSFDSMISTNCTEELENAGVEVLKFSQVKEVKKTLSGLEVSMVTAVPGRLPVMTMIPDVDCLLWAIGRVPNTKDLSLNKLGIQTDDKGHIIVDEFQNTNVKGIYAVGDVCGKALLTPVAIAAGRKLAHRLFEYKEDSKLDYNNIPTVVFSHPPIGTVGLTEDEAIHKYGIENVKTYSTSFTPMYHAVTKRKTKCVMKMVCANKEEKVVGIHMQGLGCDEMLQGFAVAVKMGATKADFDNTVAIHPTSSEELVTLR
The data set is described as follows: Reduction of purified mAb B by recombinant GR/GSSG, capillary electrophoresis. The format is biochemical. As to the method:
as §1
Using the same approach with recombinant mammalian enzymes, the glutathione system was evaluated by spiking mAb B into five solutions containing: 1) no enzyme, 2) 1 mM GSSG (oxidized glutathione), 3) 0.2 μM GR (glutathione reductase), 4) 0.2 μM GR with 1 mM GSSG, and 5) 0.02 μM GR with 1 mM GSSG. […] The results indicated a minimal mAb B reduction in the solutions containing GSSG alone. This is the result of an impurity in the GSSG. […] was reduced in the solutions containing both GR and GSSG.
as §2

Data set [5] has as its system TrxR1 purified from CHO cell cultures. In words: mAb B reduction by pooled CHO fractions with NADPH and Trx1. The format is biochemical, Chinese Hamster. The note with it: 3 μM Cu^2+ or 100 μM ATG, overnight room temperature. As to the method:
(§3) Purified mAb B was spiked into several solutions containing different combinations of the pooled fractions (PF), recombinant Trx1, GSSG, NADPH, ATG, and Cu^2+. The solutions were incubated at room temperature overnight and the amount of intact antibody remaining was determined by capillary electrophoresis according to the protocol described above. In the first set of samples, purified mAb B was spiked into the pooled fractions with, and without, NADPH.
The third set of solutions contained the pooled enzymes, NADPH, Trx1, and either no inhibitor, 3 μM Cu^2+, or 100 μM ATG. […] In the final sample as a control, mAb B was spiked into a solution containing NADPH, Trx1, and GSSG.

The subject of data set [6] is GR isolated from CHO cell culture. In words: mAb B reduction by pooled CHO fractions with NADPH and GSSG. Format: biochemical, Chinese Hamster. The note with it: 3 μM Cu^2+ or 100 μM ATG, overnight room temperature. The method, then: as §3
In the second set of samples, purified mAb B was spiked into solutions containing the pooled enzymes, NADPH, GSSG, and either no inhibitor, 3 μM Cu^2+, or 100 μM ATG. […] This solution contained GR, GSSG, and NADPH, which are needed for the glutathione system.

In data set [7] the test system is GR purified from a day 14 culture of cell line B. In words: DTNB reductase activity of 2'5'-ADP column fractions from cell line B, GR. The format is biochemical, Chinese Hamster. The note with it: 100 μM 2-AAPA, fractions B1-C2, depending on the fraction. The method, then: Reductases were purified from cell samples to verify the specificity of reductase inhibitors. A day 14 culture of mAb B (IgG antibody produced by CHO cell line B CHO-K1SV) was pelleted by centrifugation, washed once with PBS and re-suspended in 50 mM tris buffer, pH 7.5. The solution was homogenized and filtered at 0.2 μm prior to loading onto a column of 2′5′-ADP Sepharose 4B resin. The reductases were eluted using a linearly increasing gradient of 0 to 0.3 mM NADP^+ in the same tris buffer (Yadav, et al., Parasitol. Int., 62:193-198, 2013). The reductase activity of the collected fractions was determined using the assay described in Example 3. Additionally, western blot analysis was used to detect TrxR1 and GR in the collected fractions.
The reductase-specific inhibitors were evaluated above using purified recombinant mammalian enzymes from rat and human. […] The added activity from the two systems was approximately equal to the total activity detected in the absence of an inhibitor for each fraction. […] That is, if the reductase inhibitors were non-specifically inhibiting both enzymatic systems, the added reductase activity would have been […] than the reductase activity detected without any added inhibitor. […] The fractions with reductase activity were pooled and further evaluated at the inhibitor concentrations assayed in the antibody reduction assay.

The target in the next data set is T3, GR/GSSG (Homo sapiens, UniProt P00390).
T3 construct: purchased Abcam
T3 sequence (P00390 44-522): T2 sequence (P00390 44-522)
The data set is described as follows: DTNB reductase activity assay, recombinant GR/GSSG. The settings on record: 2-AAPA at 100 μM and higher. Format: biochemical. The method, then:
(§4) Briefly, culture samples were thawed on ice. […] The samples were then allowed to incubate 5 minutes.
(§5) Activity of the reductases was calculated as follows. […] The activity was then calculated by the following equation: […]

The next data set concerns the target T4, recombinant TrxR1/Trx1 (Rattus norvegicus, UniProt O89049).
T4 sequence (O89049 1-499): T1 sequence (O89049 1-499)
The data set is described as follows: DTNB reductase activity assay, recombinant TrxR1/Trx1. The settings on record: 2-AAPA 10 μM to 200 μM.

For the next data set, the system named is glutathione system. The data set is described as follows: Reductase activity assay, day 14 culture samples, glutathione system. The format is biochemical, Chinese Hamster. The settings on record: day 14, 100 μM 2-AAPA. As to the method:
The total reductase activity was determined in the absence of any inhibitor. […] Thus, the difference in activity between a sample with ATG, and a sample without any inhibitor, indicates the amount of reductase activity contributed the thioredoxin system. […] Thus, the difference in reductase activity between a sample with 2-AAPA, and a sample without any inhibitor, indicates the amount of reductase activity contributed by the glutathione system. Although ATG and 2-AAPA are provided as exemplary specific inhibitors, other specific inhibitors discussed above can be employed in this assay instead of ATG and 2-AAPA.
as §4, §5
The reductase activities of the thioredoxin and glutathione systems were evaluated in day 14 culture samples of the same CHO cell lines A, B, C, and D, using the previously evaluated specific inhibitors 2-AAPA and ATG at 100 μM and 0.5 μM respectively. Data in FIG. 6A were normalized to viable cell density. Cell lines A, B, and C were described in Example 6, above. Cell line D is the cell line CHO CAT-S, and is stably transfected to produce an IgG1 mAb (mAb D).

SMILES strings stand for the structures.

Consider `O=C(O)CN(CCN(CC(=O)O)CC(=O)O)CC(=O)O` [EDTA, ethylenediamine tetraacetic acid], for which the “reduction potential at the time of harvest of sheared mAb E material” value in data set [1] is listed as “no reduction potential”. In addition, the “aggregation of sheared mAb E material after 8 days at 2-8° C.” value in [2] is given as “limited the extent of mAb aggregation”.

Consider `O=S(=O)([O-])[O-].[Cu+2]` [Cu^2+, copper (II) sulfate], for which the “intact antibody remaining in the TrxR1/Trx1 sample” value in data set [3] (3 μM Cu^2+) is 20%. Also, in data set [3] (Cu^2+ 3-100 μM), the “antibody reduction from the thioredoxin system” value is on record as “only partially inhibited”. Also, the “antibody reduction caused by GR/GSSG” value in data set [4] (3 μM Cu^2+) is reported as “almost completely inhibited”. Besides, the “antibody reduction in samples containing GR/GSSG” value in data set [4] (Cu^2+ 3-100 μM) is reported as “prevented antibody reduction”. In addition, the “antibody reduction in pooled enzymes, NADPH, Trx1” value in [5] is recorded as “marginally prevented antibody reduction”. Further, the “antibody reduction in pooled enzymes, NADPH, GSSG” value in [6] is “completely inhibited all antibody reduction”.

For `CC(=O)NC(CSC(=S)Nc1ccc(NC(=S)SCC(NC(C)=O)C(=O)O)cc1)C(=O)O` (stereo not shown) [2-AAPA, 2-Acetylamino-3-[4-(2-acetylamino-2-carboxyethylsulfanylthiocarbonyl-amino)phenylthiocarbamoylsulfanyl]propionic acid], in [7], the “share of reductase activity from glutathione reductase, determined with the inhibitor” value is 25-40%. Moreover, the “behaviour of 2-AAPA in the antibody reduction assay” value in data set [4] (same method as for ATG) is listed as “directly caused antibody reduction”. In addition, the GR/GSSG activity entry on GR/GSSG was “completely inhibiting”. Moreover, the “effect on the reductase activity of TrxR1/Trx1 solutions” value on recombinant TrxR1/Trx1 is listed as “minimal effect”. For the same compound, the “share of total reductase activity caused by the glutathione system” value with glutathione system (cell line A) is on record as 70%; in the data set with glutathione system (cell line B) it was 45%; with glutathione system (cell line C), 5%; with glutathione system (cell line D), 45%.
